Experimental data as given in US12264163B2, “Compounds and methods for treating fibrotic pathologies” (Mayo Foundation for Medical Education and Research, priority 2019, dated 2025).

Experiments:
cAMP = cAMP assay (cAMP-Glo) in fibroblasts; type: cell-based, human; details: IPF patient-derived fibroblasts, 20 minutes, 10 μM
Description: FIG. 9 contains a bar graph showing cAMP measured in IPF patient-derived fibroblasts treated for 20 minutes with DHX (10 μM)+/−SCH 39166 (3 μM). N=3 (**p<0.01 vs. 0.1% DMSO vehicle control).
N=3, IMR-90 lung fibroblasts.
cAMPAssay: IPF patient derived fibroblasts were plated in EMEM containing 10% FBS overnight. […] 20 minutes prior to cell lysis media was removed and cells were treated with “induction buffer” containing nonselective phosphodiesterase inhibitors and the indicated concentration of compound(s). Luminescence was measured on a Flexstation 3 (Molecular Devices) plate reader.

[1] = system: IPF patient derived fibroblasts; assay: Traction force microscopy of IPF patient-derived fibroblasts; type: cell-based, human; details: IPF fibroblasts on 6.4 kPa matrices
Description: Traction Force Microscopy: Traction analysis was conducted as previously described. […] IPF patient derived fibroblasts were plated on the gels overnight and treated as indicated before traction force measurements. Images of gel surface-conjugated fluorescent beads were acquired for each cell before and after trypsinization using a Nikon ECLIPSE Ti microscope at ×10 magnification. Traction forces were estimated by measuring bead displacement fields and computing corresponding traction fields using TractionsForAll (freely distributed program that calculates 2-D tractions exerted by an adherent cell on its substrate).

[2] = system: bile duct ligation (BDL)-mediated fibrosis; assay: Bile duct ligation model of liver fibrosis; type: in vivo, mouse; details: BDL mice, DHX 5 mg/kg i.p. daily Day 7 for 14 days
Description: Bile Duct Ligation: BDL was performed as previously described. Briefly, 8-10 weak old female C57BL/6N underwent either BDL or sham surgery. Mice were anesthetized on Day 0 following IACUC protocol, and the bile duct was ligated using sterile 3/0 silk ligatures. Sham surgery was performed by passing a silk ligature under the bile duct. Starting on Day 7, DHX (5 mg/kg) or vehicle control was administered everyday intraperitoneally (i.p.) for 14 days. Following the final DHX treatment, mice were sacrificed and the livers harvested for analysis of fibrosis.
Histological Scoring: Five μm thick sections were cut from Paraffin embedded lung tissues, and the sections were stained either with hematoxylin and eosin (H&E) or with Masson's Trichrome stain kit (Abcam). […] The severity of interstitial and peribronchiolar lung immature and mature fibrosis was estimated on a numerical scale according to Ashcroft et al. For scoring purposes, all H&E stained slides were systematically scanned at 100× magnification and successive 100× fields were scored. […] The predominant score for each field was recorded. The mean of all scores was calculated for each case. Liver trichrome stained sections were computationally measured using Image J software. […]
Hydroxyproline: Hydroxyproline content was measured using a hydroxyproline assay kit (Biovision) according to the manufacture's instruction with slight modification. […]

normal healthy mice = details: mouse, in vivo
Description: Bleomycin model of pulmonary fibrosis was used to test the efficacy of DHX in vivo in experimental fibrosis. Mice were administered bleomycin intratracheally at Day 0. On Day 10 injury and inflammation typically subside and fibrosis is ongoing. At Day 10 mice were randomized into two groups, one receiving DHX (5 mg/kg once daily i.n.) and the other, vehicle control. […] At day 24 the mice were sacrificed and compared using histology, hydroxyproline and qPCR. […] To assess whether DHX adversely effects lung remodeling in the absence of fibrosis, we also exposed control mice to DHX following an identical time course and route of exposure.

hepatic stellate cells = assay: TGFβ-mediated hepatic stellate cell activation, western blot of αSMA and fibronectin; type: cell-based, human; details: HSCs, TGFβ 48 hours, DHX 10 μM
Description: HSCs were stimulated with TGFβ for 48 hours+/−DHX (10 μM) prior to total protein isolation and western blot analysis of αSMA and Fibronectin. N=3 (***p<0.001, **p<0.01, *p<0.05 vs. Control+TGFβ).
Western Blotting: Cells were plated in EMEM containing 10% FBS overnight. Media was exchanged with EMEM containing 0.1% FBS for 24 hours. Prior to protein isolation cells were treated with the indicated concentration of compounds for the indicated time. Total protein was isolated using RIPA buffer (pH 8.0) containing Pierce Phosphatase Inhibitor (Thermo) and Halt Protease Inhibitor Cocktail (Thermo). Lysate total protein concentration was determined using Pierce BCA Protein Assay Kit (Thermo) and samples were run on a 10% polyacrylamide gel. Blots were incubated overnight with primary antibodies: pYAP (Ser 127, Cell Signaling D9W21), YAP/TAZ (Cell Signaling D24E4), GAPDH (Cell Signaling 14C10), HSC70 (Santa Cruz sc-7298), αSMA (Abcam ab5694), and fibronectin (Santa Cruz sc-9068) diluted 1:1000 in Li-Cor Odyssey Blocking Buffer. Blots were washed with TBS-Tween before 60 minute incubation with IR-dye-conjugated secondary antibodies (Li-Cor) diluted 1:10,000. Plates were imaged via a Li-Cor OdysseyXL system with quantification performed via densitometry. […]

## Oc1cc2c(cc1O)[C@H]1c3ccccc3CN[C@@H]1CC2 (racemic) [Dihydrexidine]
cAMP
  cAMP: elevated cAMP
[1]
  contractile forces (traction force microscopy): significantly and dose-dependently reduced the contractile forces
[2]
  collagen deposition (hydroxyproline): trend toward reduced collagen deposition
  histological fibrosis (trichrome): significantly improved histological fibrosis
Normal healthy mice
  body weight: did not alter body weight
  expression of Ctgf, Col1a1, Acta2, and Fn1: did not alter expression of Ctgf, Col1a1, Acta2, and Fn1
  lung collagen deposition: did not alter lung collagen deposition
  lung histology: did not alter lung histology
Hepatic stellate cells
  TGFβ-mediated HSC expression of SMA and FN protein (western blotting): significant reversal of both
